Results: PMC9981942, “Pharmacokinetics and tissue distribution of Ramulus Mori (Sangzhi) alkaloids in rats and its effects on liver enzyme activity” (Frontiers in Pharmacology, 2023)
Read-outs that look alike come from different tables or passages of the source.

Columns and labels:
[1] = design: method as in Nakagawa et al., 2007; settings: rats, after oral gavage of DNJ; ref Nakagawa et al., 2007; cited from earlier work
[2] = Tissue distribution after single oral SZ-A (40 mg/kg) in SD rats, plasma and 12 tissues; assay type: in vivo; settings: for CLz / Vz / half-life / Cmax: n=5; for half-life / AUC(0-t) / Tmax / Cmax: rat; for AUC(0-t): n=5, read-out: AUC(0-t); for accumulation in tissues: up to 12 h
Method: Twenty SD rats were randomly classified into four groups corresponding to four-time points (5 and 30 min, 4 and 12 h) (n = 20; 5 animals per time point) that received SZ-A solution (40 mg/kg) via oral administration. After the completion of dose administration, plasma and tissue samples (derived from the heart, liver, spleen, lung, kidney, aortic blood vessels, brown adipose tissue, subcutaneous adipose tissue, abdominal adipose tissue, muscle (thigh skeletal muscle), pancreas, and brain) were collected at predetermined time points. Twenty-eight ICR mice were randomly classified into four groups (n = 7 per group) corresponding to four-time points (5 and 30 min, 4 and 12 h) that received SZ-A solution (20 mg/kg) via oral administration. After the completion of dose administration, tissue samples (derived from the heart, liver, spleen, lung, kidney, aortic blood vessels, brown adipose tissue, abdominal adipose tissue, muscle (thigh skeletal muscle), pancreas, and brain) were collected at predetermined time points.
Collected tissue samples were washed with normal saline. The surface moisture was removed by blotting gently with filter paper, and the weight was recorded. After adding an appropriate amount of normal saline, these tissue samples were ground into homogenates using a cryogenic grinder (JX-CL, Shanghai Jingxin, Shanghai, China). The obtained homogenates were stored at −80°C until LC-MS/MS analysis.
Primary pharmacokinetic parameters, including Cmax, Tmax, area under the plasma concentration-time curve (AUC), t1/2, clearance rate, and the apparent volume of distribution, were calculated using DAS 3.2.8 (Bio Guider Co., Shanghai, China).

[3] = Sprague-Dawley, Brown adipose tissue
[4] = Sprague-Dawley, Brown adipose tissue, n=5, read-out: Tmax
[5] = Sprague-Dawley, Kidney, n=5, read-out: Tmax
[6] = Sprague-Dawley, Liver, n=5, read-out: Tmax
[7] = Sprague-Dawley, Lung, n=5, read-out: Tmax
[8] = Sprague-Dawley, Pancreas, n=5, read-out: Tmax
[9] = Sprague-Dawley, Plasma, n=5, read-out: Tmax
[10] = Sprague-Dawley, muscle (thigh skeletal muscle), Muscle
[11] = Sprague-Dawley, muscle (thigh skeletal muscle), Muscle, n=5, read-out: Tmax
[12] = Abdominal adipose tissue, n=5, read-out: Tmax
[13] = Aortic blood vessels, n=5, read-out: Tmax
[14] = Subcutaneous adipose tissue, n=5, read-out: Tmax
[15] = other tissues (not named), tissues not named separately for that alkaloid, read-out: time of peak concentration in other tissues (converted)

In the case of `OC[C@H]1NC[C@H](O)[C@@H](O)[C@@H]1O` [DNJ, 1-deoxynojirimycin], the “DNJ metabolites in plasma” value [1] is given as “did not detect any DNJ metabolites”, the “peak time in the brain” value [2] is given as 4 h and the “tissues with the highest concentrations” value [2] is given as “kidney, followed by the liver, aortic vessels, and brown adipose tissue”. It also gave a CLz ([2]; Plasma) of 2.14 ± 0.31 L/h/kg, a Vz ([2]; Plasma) of 1.59 ± 0.29 L/kg and a half-life [2, 3] of 26.4 ± 13.2 min. The AUC(0-t) [2, 3] was 3750 ± 995 ng·h/mL, the Tmax [2, 4] was 30 min and the Cmax ([2]; Sprague-Dawley, Kidney) was 68200 ± 12400 ng/mL. For the same molecule, the half-life ([2]; Sprague-Dawley, Kidney) was 148 ± 30.6 min, the AUC(0-t) ([2]; Sprague-Dawley, Kidney) was 174000 ± 37100 ng·h/mL and the Tmax [2, 5] was 30 min. The Cmax ([2]; Sprague-Dawley, Liver) was 3300 ± 893 ng/mL, the half-life ([2]; Sprague-Dawley, Liver) was 33 ± 0.6 min and the AUC(0-t) ([2]; Sprague-Dawley, Liver) was 7560 ± 1840 ng·h/mL. The Tmax [2, 6] was 25.2 ± 11.4 min, the Cmax ([2]; Sprague-Dawley, Lung) was 806 ± 23.5 ng/mL and the half-life ([2]; Sprague-Dawley, Lung) was 28.2 ± 14.4 min. It also gave a Tmax [2, 7] of 13.2 ± 14.4 min, a Cmax ([2]; Sprague-Dawley, Pancreas) of 386 ± 124 ng/mL and a half-life ([2]; Sprague-Dawley, Pancreas) of 130 ± 205 min. It also gave an AUC(0-t) ([2]; Sprague-Dawley, Pancreas) of 2190 ± 614 ng·h/mL, a Tmax [2, 8] of 30 min and a Cmax ([2]; Sprague-Dawley, Plasma) of 5830 ± 843 ng/mL. The half-life ([2]; Sprague-Dawley, Plasma) was 31.2 ± 1.2 min, the AUC(0-t) ([2]; Sprague-Dawley, Plasma) was 13700 ± 1970 ng·h/mL and the Tmax [2, 9] was 30 min. For the same molecule, the Cmax [2, 10] was 725 ± 279 ng/mL, the half-life [2, 10] was 45.6 ± 18 min and the AUC(0-t) [2, 10] was 2640 ± 544 ng·h/mL. It also gave a Tmax [2, 11] of 19.8 ± 13.8 min, a Cmax ([2]; Abdominal adipose tissue) of 1270 ± 428 ng/mL and a half-life ([2]; Abdominal adipose tissue) of 102 ± 135 min. For the same molecule, the AUC(0-t) ([2]; Abdominal adipose tissue) was 3730 ± 1010 ng·h/mL, the Tmax [2, 12] was 25.2 ± 11.4 min and the Cmax ([2]; Aortic blood vessels) was 4360 ± 2870 ng/mL. For the same molecule, the half-life ([2]; Aortic blood vessels) was 36 ± 6.6 min, the AUC(0-t) ([2]; Aortic blood vessels) was 6230 ± 1790 ng·h/mL and the Tmax [2, 13] was 4.8 min. It also gave a Cmax ([2]; Brain) of 242 ± 50.3 ng/mL, a half-life ([2]; Brain) of 482 ± 430 min and an AUC(0-t) ([2]; Brain) of 2060 ± 562 ng·h/mL. For the same molecule, the Tmax ([2]; Brain, n=5, read-out: Tmax) was 151 ± 122 min, the Cmax ([2]; Brown adipose tissue) was 1420 ± 513 ng/mL and the Cmax ([2]; Heart) was 588 ± 140 ng/mL. For the same molecule, the half-life ([2]; Heart) was 31.8 ± 11.4 min, the AUC(0-t) ([2]; Heart) was 1340 ± 373 ng·h/mL and the Tmax ([2]; Heart, n=5, read-out: Tmax) was 10.2 ± 11.4 min. It also gave an AUC(0-t) ([2]; Lung) of 1220 ± 501 ng·h/mL, a Cmax ([2]; Spleen) of 660 ± 225 ng/mL and a half-life ([2]; Spleen) of 37.2 ± 1.8 min. For the same molecule, the AUC(0-t) ([2]; Spleen) was 1880 ± 845 ng·h/mL, the Tmax ([2]; Spleen, n=5, read-out: Tmax) was 30 min and the Cmax ([2]; Subcutaneous adipose tissue) was 577 ± 163 ng/mL. The half-life ([2]; Subcutaneous adipose tissue) was 37.8 min, the AUC(0-t) ([2]; Subcutaneous adipose tissue) was 1210 ± 304 ng·h/mL and the Tmax [2, 14] was 30 min. For the same molecule, the Tmax ([2]; heart, aortic vessels, read-out: time of peak concentration in heart and aortic vessels (converted)) was 5 min, the Tmax [2, 15] was 30 min and the accumulation in tissues [2] was “no long-term accumulation”.
For `OC[C@H]1NCC[C@@H](O)[C@@H]1O` [FA, fagomine], the “time of maximum drug concentration in heart, muscle, lung, and aortic vessels” value [2] was 5 min, the “tissues with the highest concentrations” value [2] was “kidney, followed by the liver, aortic vessels, and brown adipose tissue” and the CLz ([2]; Plasma) was 3.95 ± 0.90 L/h/kg. It also gave a Vz ([2]; Plasma) of 4.39 ± 2.04 L/kg, a half-life [2, 3] of 139 ± 139 min and an AUC(0-t) [2, 3] of 1480 ± 380 ng·h/mL. The Tmax [2, 4] was 19.8 ± 13.8 min, the Cmax ([2]; Sprague-Dawley, Kidney) was 8970 ± 1680 ng/mL and the half-life ([2]; Sprague-Dawley, Kidney) was 139 ± 72.6 min. It also gave an AUC(0-t) ([2]; Sprague-Dawley, Kidney) of 27000 ± 8880 ng·h/mL, a Tmax [2, 5] of 25.2 ± 11.4 min and a Cmax ([2]; Sprague-Dawley, Liver) of 1130 ± 187 ng/mL. It also gave a half-life ([2]; Sprague-Dawley, Liver) of 36 ± 0.6 min, an AUC(0-t) ([2]; Sprague-Dawley, Liver) of 2990 ± 1030 ng·h/mL and a Tmax [2, 6] of 25.2 ± 11.4 min. It also gave a Cmax ([2]; Sprague-Dawley, Lung) of 248 ± 5.46 ng/mL, a half-life ([2]; Sprague-Dawley, Lung) of 31.2 ± 15.6 min and a Tmax [2, 7] of 13.2 ± 14.4 min. For the same molecule, the Cmax ([2]; Sprague-Dawley, Pancreas) was 96.9 ± 13.9 ng/mL, the half-life ([2]; Sprague-Dawley, Pancreas) was 42 ± 2.4 min and the AUC(0-t) ([2]; Sprague-Dawley, Pancreas) was 705 ± 118 ng·h/mL. For the same molecule, the Tmax [2, 8] was 114 ± 115 min, the Cmax ([2]; Sprague-Dawley, Plasma) was 692 ± 135 ng/mL and the half-life ([2]; Sprague-Dawley, Plasma) was 46.8 ± 22.8 min. For the same molecule, the AUC(0-t) ([2]; Sprague-Dawley, Plasma) was 1800 ± 421 ng·h/mL, the Tmax [2, 9] was 25.2 ± 11.4 min and the Cmax [2, 10] was 175 ± 91.2 ng/mL. The half-life [2, 10] was 40.8 ± 2.4 min, the AUC(0-t) [2, 10] was 577 ± 298 ng·h/mL and the Tmax [2, 11] was 19.8 ± 13.8 min. For the same molecule, the Cmax ([2]; Abdominal adipose tissue) was 221 ± 137 ng/mL, the half-life ([2]; Abdominal adipose tissue) was 38.4 ± 15 min and the AUC(0-t) ([2]; Abdominal adipose tissue) was 409 ± 127 ng·h/mL. For the same molecule, the Tmax [2, 12] was 25.2 ± 11.4 min, the Cmax ([2]; Aortic blood vessels) was 1090 ± 760 ng/mL and the half-life ([2]; Aortic blood vessels) was 27 ± 14.4 min. The AUC(0-t) ([2]; Aortic blood vessels) was 1060 ± 367 ng·h/mL, the Tmax [2, 13] was 4.8 min and the Cmax ([2]; Brown adipose tissue) was 463 ± 161 ng/mL. The Cmax ([2]; Heart) was 128 ± 33.6 ng/mL, the half-life ([2]; Heart) was 42.6 ± 0.6 min and the AUC(0-t) ([2]; Heart) was 382 ± 246 ng·h/mL. For the same molecule, the Tmax ([2]; Heart, n=5, read-out: Tmax) was 10.2 ± 11.4 min, the AUC(0-t) ([2]; Lung) was 367 ± 136 ng·h/mL and the Cmax ([2]; Spleen) was 198 ± 77.7 ng/mL. For the same molecule, the half-life ([2]; Spleen) was 42 ± 4.8 min, the AUC(0-t) ([2]; Spleen) was 491 ± 264 ng·h/mL and the Tmax ([2]; Spleen, n=5, read-out: Tmax) was 30 min. The Cmax ([2]; Subcutaneous adipose tissue) was 102 ± 52 ng/mL, the half-life ([2]; Subcutaneous adipose tissue) was 44.4 ± 1.8 min and the AUC(0-t) ([2]; Subcutaneous adipose tissue) was 212 ± 95 ng·h/mL. The Tmax [2, 14] was 15 ± 13.8 min, the Tmax [2, 15] was 30 min and the accumulation in tissues [2] was “no long-term accumulation”.
